Our source for the inhibition and IC50 values is patent US12655145B2, “P2X3 modulators” (GlaxoSmithKline Intellectual Property (No. 3) Limited, priority 2020, dated 2026).

The target in one test is T1, P2X3 (Homo sapiens, UniProt P56373).
T1 construct: expressed in transfected cells; host or cells: HEK293
T1 sequence (P56373 1-397): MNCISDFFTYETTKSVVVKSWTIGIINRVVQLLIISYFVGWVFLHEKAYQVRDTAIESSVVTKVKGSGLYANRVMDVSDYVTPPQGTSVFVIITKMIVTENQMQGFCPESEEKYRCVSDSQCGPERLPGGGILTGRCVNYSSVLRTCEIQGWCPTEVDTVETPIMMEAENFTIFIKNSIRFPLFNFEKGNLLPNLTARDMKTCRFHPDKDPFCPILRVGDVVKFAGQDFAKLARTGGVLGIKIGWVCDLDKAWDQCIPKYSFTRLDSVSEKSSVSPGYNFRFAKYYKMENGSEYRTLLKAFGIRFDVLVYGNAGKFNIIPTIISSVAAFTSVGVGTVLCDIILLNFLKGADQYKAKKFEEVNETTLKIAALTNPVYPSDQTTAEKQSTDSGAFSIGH
Nature of the test: P2X3 Antagonist Assay (FLIPR calcium, Fluo-8, HEK293 cells transfected with human ion channel cDNAs, αβ-meATP stimulation). The format is cell-based. Particulars: HEK293, @ 1 μM, antagonist mode, αβ-meATP 3 μM, read-out: P2X3 IC50 column, given as % @ 1 μM. The procedure: Example 59: P2X3 Antagonist Assay
HEK293 were transiently or stably transfected with human ion channel cDNAs as indicated in section 1. Stable transfectants were selected by coexpression with the antibiotic-resistance gene(s) incorporated into the expression plasmid(s). Selection pressure was maintained by including selection antibiotics in the culture medium. HEK293 cells were cultured in Dulbecco's Modified Eagle Medium/Nutrient Mixture F-12 (D-MEM/F-12) supplemented with 10% fetal bovine serum, 100 U/mL penicillin G sodium, 100 J·Lg/mL streptomycin sulfate and appropriate selection antibiotics.
The effect of each test article to act as an antagonist was evaluated. Each test article was evaluated at eight (8) concentrations (0.001, 0.003, 0.01, 0.03, 0.1, 0.3, 1 and 3 μM, n=3) with 4 replicates for each concentration. Experiments were performed with the FLIPR calcium sensitive dye kit (Fluo-8 dye, AAT, Bioquest) according to the manufacturer's instructions. • Dye-loading: Growth media will be removed and add 20 μL of Mg^++-free HBPS containing Fluo-8 for 30 min at 37° C. • Preincubation (FLIPR step 1): Adding 5× (5 μL) test, vehicle, or control article solutions in Mg^+-free HBPS to each well for 20 minutes at room temperature, protected from light. • Stimulation (FLIPR step 2): After pre-incubation, cells will be stimulated with 6× (5 μL) αβ-meATP at final concentration of 3 μM prepared in Mg^++-free HBPS. • Non-Specific Calcium Influx (FLIPR step 3): 5 minutes after stimulation solution addition, non-specific calcium influx will be activated by adding 7×(5 μL) ionomycin at a final concentration of 5 μM. Fluorescence will be recorded continuously during FLIPR steps 2 and 3. • Positive Control Antagonist: PPADS (1 mM).
Data acquisition was performed via the FLIPRControl software that is supplied with the FLIPR System (MDS-AT) and data was analyzed using Microsoft Excel2003 (Microsoft Corp., Redmond, WA).
For `CNC(=O)c1ccc(-c2nc3cc(C4CC4)ccn3c2C[C@H]2CN(C(=O)OC)CCO2)c(F)c1` [Compound A52, methyl (S)-2-((7-cyclopropyl-2-(2-fluoro-4-(methylcarbamoyl)-phenyl)imidazo[1,2-a]pyridin-3-yl)methyl)morpholine-4-carboxylate], the inhibition at 1 µM turned out to be 50%.

In the case of `COC(=O)N1CCO[C@@H](Cc2c(-c3ccc([S+](C)[O-])cc3F)nc3cc(C)ccn23)C1` (stereo partly drawn) [Compound A58, methyl (2S)-2-((2-(2-fluoro-4-(methylsulfinyl)phenyl)-7-methyl-imidazo[1,2-a]pyridin-3-yl)methyl)morpholine-4-carboxylate], the inhibition at 1 µM was found to be 16%.

Take `CNC(=O)c1cc(F)c(-c2nc3cc(C)ccn3c2CC2CCC(NC(C)=O)CC2)c(F)c1` (stereo not drawn) [cis-A21, 4-(3-((4-acetamidocyclohexyl)methyl)-7-methylimidazo[1,2-a]pyridin-2-yl)-3,5-difluoro-N-methylbenzamide]: the inhibition at 1 µM came to 20%.

The test is the same for the next values; noted with them: antagonist mode, αβ-meATP 3 μM.
Usually IC50 stands for the concentration needed to halve the response being measured. Turning to `CNC(=O)c1ccc(-c2nc3cc(C(F)F)ccn3c2C[C@H]2CN(C(=O)OC)CCO2)c(F)c1` [Compound A42, methyl (S)-2-((7-(difluoromethyl)-2-(2-fluoro-4-(methylcarbamoyl)phenyl)imidazo[1,2-a]pyridin-3-yl)methyl)morpholine-4-carboxylate], the IC50 was less than 100 nM.

On to `CNC(=O)c1ccc(-c2nc3cc(C(F)F)ccn3c2C[C@H]2CN(C(=O)OC)CCO2)c(C)c1` [Compound A43, methyl (S)-2-((7-(difluoromethyl)-2-(2-methyl-4-(methylcarbamoyl)phenyl)imidazo[1,2-a]pyridin-3-yl)methyl)morpholine-4-carboxylate], for which the half-maximal inhibitory concentration (IC50) was less than 100 nM.

Turning to `CNC(=O)c1cc(C)c(-c2nc3cc(C(F)F)ccn3c2C[C@H]2CN(C(=O)OC)CCO2)cc1F` [Compound A44, methyl (S)-2-((7-(difluoromethyl)-2-(5-fluoro-2-methyl-4-(meth-ylcarbamoyl)phenyl)imidazo[1,2-a]pyridin-3-yl)methyl)morpholine-4-carboxylate], the IC50 was less than 100 nM.

As for `CCc1ccn2c(C[C@H]3CN(C(=O)OC)CCO3)c(-c3ccc(C(=O)NC)cc3F)nc2c1` [Compound A45, methyl (S)-2-((7-ethyl-2-(2-fluoro-4-(methylcarbamoyl)phenyl)imidazo[1,2-a]pyridin-3-yl)methyl)morpholine-4-carboxylate], the IC50 is less than 100 nM.

On to `CNC(=O)c1ccc(-c2nc3cc(S(C)(=O)=O)ccn3c2C[C@H]2CN(C(=O)OC)CCO2)c(F)c1` [Compound A48, methyl (S)-2-((2-(2-fluoro-4-(methylcarbamoyl)phenyl)-7-(methylsulfonyl)imidazo[1,2-a]-pyridin-3-yl)methyl)morpholine-4-carboxylate], for which the IC50 is greater than 1000 nM.

For the compound `CNC(=O)c1ccc(-c2nc3cc(CF)ccn3c2C[C@H]2CN(C(=O)OC)CCO2)c(F)c1` [Compound A49, methyl (S)-2-((2-(2-fluoro-4-(methylcarbamoyl)phenyl)-7-(fluoromethyl)imidazo[1,2-a]pyridin-3-yl)methyl)morpholine-4-carboxylate], the IC50 was 100 to 1000 nM.

With `COC(=O)N1CCO[C@@H](Cc2c(-c3ccc(S(C)(=O)=O)cc3F)nc3cc(C)ccn23)C1` [Compound A61, methyl (S)-2-((2-(2-fluoro-4-(methylsulfonyl)phenyl)-7-methylimidazo[1,2-a]pyridin-3-yl)methyl)morpholine-4-carboxylate], the IC50 was in the range of 100 to 1000 nM.

Turning to `COC(=O)N1CCO[C@@H](Cc2c(-c3ccc(C(=O)N(C)C)cc3F)nc3cc(Cl)ccn23)C1` [Compound A65, methyl (S)-2-((7-chloro-2-(4-(dimethylcarbamoyl)-2-fluoro-phenyl)imidazo[1,2-a]pyridin-3-yl)methyl)morpholine-4-carboxylate], the IC50 was in the range of 100 to 1000 nM.

`CCN(C)C(=O)c1ccc(-c2nc3cc(Cl)ccn3c2C[C@H]2CN(C(=O)OC)CCO2)c(F)c1` [Compound A66, methyl (S)-2-((7-chloro-2-(4-(ethyl(methyl)carbamoyl)-2-fluoro-phenyl)imidazo[1,2-a]pyridin-3-yl)methyl)morpholine-4-carboxylate]: the IC50 was less than 100 nM.

Take `COC(=O)N1CCO[C@@H](Cc2c(-c3ccc(C(=O)N4CCCC4)cc3F)nc3cc(Cl)ccn23)C1` [Compound A67, methyl (S)-2-((7-chloro-2-(2-fluoro-4-(pyrrolidine-1-carbonyl)-phenyl)imidazo[1,2-a]pyridin-3-yl)methyl)morpholine-4-carboxylate]: the IC50 fell in the range of 100 to 1000 nM.

In the case of `COC(=O)N1CCO[C@@H](Cc2c(-c3ccc(C(=O)N4CC[C@H](O)C4)cc3F)nc3cc(Cl)ccn23)C1` [Compound A68, methyl (S)-2-((7-chloro-2-(2-fluoro-4-((S)-3-hydroxypyrrolidine-1-carbonyl)phenyl)imidazo[1,2-a]pyridin-3-yl)methyl)morpholine-4-carboxylate], the half-maximal inhibitory concentration (IC50) lay within 100 to 1000 nM.

In the case of `COC(=O)N1CCO[C@@H](Cc2c(-c3ccc(C(=O)N4CC[C@@H](O)C4)cc3F)nc3cc(Cl)ccn23)C1` [Compound A69, methyl (S)-2-((7-chloro-2-(2-fluoro-4-((R)-3-hydroxypyrrolidine-1-carbonyl)phenyl)imidazo[1,2-a]pyridin-3-yl)methyl)morpholine-4-carboxylate], the IC50 is greater than 1000 nM.

For `COCCNC(=O)c1ccc(-c2nc3cc(Cl)ccn3c2C[C@H]2CN(C(=O)OC)CCO2)c(F)c1` [Compound A73, methyl (S)-2-((7-chloro-2-(2-fluoro-4-((2-methoxyethyl)carbamoyl)phenyl)imidazo[1,2-a]pyridin-3-yl)methyl)morpholine-4-carboxylate], the IC50 was greater than 1000 nM.

Turning to `CNC(=O)c1ccc(-c2nc3cc(Cl)ccn3c2C[C@H]2CN(C(C)=O)CCO2)c(F)c1` [Compound A88, (S)-4-(3-((4-acetylmorpholin-2-yl)methyl)-7-chloroimidazo[1,2-a]pyridin-2-yl)-3-fluoro-N-methylbenzamide], the IC50 was in the range of 100 to 1000 nM.

On to `CCC(=O)N1CCO[C@@H](Cc2c(-c3ccc(C(=O)NC)cc3F)nc3cc(Cl)ccn23)C1` [Compound A89, (S)-4-(7-chloro-3-((4-propionylmorpholin-2-yl)methyl)imidazo-[1,2-a]pyridin-2-yl)-3-fluoro-N-methylbenzamide], for which the IC50 was 100 to 1000 nM.

For `CNC(=O)c1cc(F)c(-c2nc3cc(C)ccn3c2CC2CCC(NC(C)=O)CC2)c(F)c1` (stereo not drawn) [trans-A21, 4-(3-((4-acetamidocyclohexyl)methyl)-7-methylimidazo[1,2-a]pyridin-2-yl)-3,5-difluoro-N-methylbenzamide], the IC50 was greater than 1000 nM.
